Experimental data published in patent US20240408145A1, “Gene Therapy” (Ospedale San Raffaele S.r.l., priority 2021, published 2024).
Entries after “also recorded” stand apart in the source; their conditions may differ.

How the values were obtained:
edited human CD34+ HSPCs = test: CD34+ HSPC xenotransplantation in NSG mice; format: in vivo
[1] = test system: BM-derived human CD34+ cells; test: Senescence markers (p16, SA-β-Gal) in BM-derived cells of the human graft; format: in vivo, NSG mice
CB-derived HSPCs = test: Whole transcriptomic analysis with GSEA; format: cell-based, human; conditions: CB HSPCs edited in presence of Anakinra vs not treated, 24 and 96 h
Description: Whole transcriptomic analysis was performed on a pool of HSPCs derived from five CB donors. All conditions were performed in triplicate. […] RNA was quantified with The Qubit 2.0 Fluorometer (ThermoFisher) and its quality was assessed by a 2100 Agilent Bioanalyser (Agilent Technologies). Minimum quality was defined as RNA integrity number (RIN) >8,300 ng of total RNA were used for library preparation with TruSeq Stranded Total RNA with Ribo-Zero Gold kit (Illumina) and sequenced on a NextSeq 500 (Illumina). Read quality was determined using FastQC and low-quality sequences were trimmed using Trimmomatic. RNA-seq data were aligned to the human reference genome (GRCh38/hg38) using both HISAT2 and STAR with standard input parameters. Gene counts were produced using Subread featureCounts against Genecode v26 or v31, considering results produced by both the aligners. After visual inspection of results, we continued the analysis using alignments achieved using HISAT, which provided more conservative alignments. […] Differential expression was determined considering only protein coding genes and correcting p-values using FDR.

[2] = test system: HDR-edited human HSPC clones; test: BAR-Seq clonal tracking of HDR-edited HSPCs; format: in vivo, NSG mice; conditions: end of experiment; inhibitor at time of GE vs standard gene edited cells
Description: PCR amplicons for individual samples were generated by nested PCR using primers listed in Ferrari, S. et al., 2020, Nat Biotech 38(11):1298-1308 and starting from >50-100 ng of purified gDNA. The first PCR step was performed with GoTaq G2 DNA Polymerase (Promega) according to the manufacturer's instructions using the following amplification protocol: 95° C. for 5 min, (95° C. for 0.5 min, 60° C. for 0.5 min, 72° C. for 0.5 min)×20 cycles, 72° C. for 5 min. Forward primer was designed to bind donor template upstream the BAR sequence, while the reverse primer annealed outside the homology arm, thus amplifying 328 bp of the on-target integrated cassette. For targeted deep sequencing of the plasmid and AAV libraries, the reverse primer annealed to the homology arm. […] Library quality was assessed by Agilent Tapestation (Agilent Technologies). […]
BAR-Seq data were processed with TagDust57 (v.2.33) to identify and extract the BAR from each sample by taking advantage of the structural composition of the reads. […] BAR abundance was quantified by summing the number of identical sequences. […] BARs with a read count lower than three were discarded and the remaining set of BARs were identified as the valid BARs of this sample. […]

IL8, CXCL10, p21, p16 = test: Gene expression in BM-derived HSPCs (qPCR); format: cell-based, human; conditions: HS/AAV6 ± Anakinra
Description: (§1) For gene expression analyses, total RNA was extracted using either miRNeasy Micro Kit (QIAGEN) according to the manufacturer's instructions and DNase treatment was performed using RNase-free DNase Set (QIAGEN). cDNA was synthetized with iScript cDNA Synthesis Kit (Bio-Rad). cDNA was then pre-amplified using TaqMan PreAmp Master Mix (ThermoFisher) and used for q-PCR in a Viia7 Real-time PCR thermal cycler using both Fast SYBR Green Master Mix (Thermofisher), after standard curve method optimization to reach the 100% primer efficiency for each couple of primers listed in 1. The relative expression of each target gene was first normalized to GUSB housekeeping genes expression and then represented as 2^-DCt for each sample or as fold changes (2^-DDCt) relative to the indicated control conditions.

CDKN1A (p21) = test: p21 expression in edited HSPCs (qPCR); format: cell-based, human; conditions: CB HSPCs, HS/AAV6 ± Anakinra, 24 and 96 h
Description: as §1

human CD34+ HSPCs [3] = test: Culture composition of HSPC subpopulations (flow cytometry); format: cell-based
human CD34+ HSPCs [4] = test: Colony-forming unit cell (CFU-C) assay; format: cell-based

Q: Which “Percentage of human edited (GFP+) cells in peripheral blood” value (edited human CD34+ HSPCs; HS/AAV6 ± Anakinra) does the source give for “Anakinra: recombinant and slightly modified form of the Human interleukin-1 receptor antagonist (IL-1Ra); SEQ ID NO: 3” here?
A: higher and stable percentage of GFP+ cells; also recorded: reproducible higher and stable levels of HDR-edited cells

Q: And the “Percentage of GFP+ cells in BM human graft, HSPC, B and myeloid lineages” value (edited human CD34+ HSPCs; endpoint, HS/AAV6 ± Anakinra)?
A: improved long-term reconstitution

Q: What about the “Percentage of human HDR-edited cells in bone marrow” value (edited human CD34+ HSPCs; mPB HSPCs, 15 weeks) of the same substance?
A: trend of higher levels of HDR-edited cells

Q: What about the “Percentage of human CD45+ cells in bone marrow” value (edited human CD34+ HSPCs; mPB HSPCs, matching low doses, 15 weeks) of the same substance?
A: comparable human engraftment independently of Anakinra treatment

Q: And the “Percentage of human CD45+ cells in peripheral blood (plateau of circulating cells)” value (edited human CD34+ HSPCs; saturating cell doses, HS/AAV6 ± Anakinra)?
A: 35-40%

Q: What about the “Percentage of senescent cells (p16, SA-β-Gal) in BM-derived CD34+ / HDR-edited cells of the human graft” value ([1]; NSG mice, endpoint 15-18 weeks, inhibitor at time of ex vivo GE) of the same substance?
A: decrease

Q: And the “Senescence burden (p16+) in the human graft” value ([1]; mPB HSPCs, BM-derived HSPC)?
A: reduction in the senescence burden in the human graft; also recorded: dampened GE-related senescence establishment

Q: And the “GSEA normalized enrichment scores for inflammatory/TNFα dependent pathways, interferon responses, senescence categories” value (CB-derived HSPCs)?
A: negative and significantly high normalized enrichment scores (NES); also recorded: downregulated early and late upon Anakinra treatment

Q: What about the “Number of dominant unique BARs in human BM-derived cells (polyclonal reconstitution)” value [2] of the same substance?
A: higher long-term polyclonal reconstitution

Q: And the “Relative expression of pro-inflammatory cytokines (IL8, CXCL10) in BM-derived edited CD34+ cells” value (IL8, CXCL10, p21, p16)?
A: decrease in pro-inflammatory cytokines expression

Q: And the “Relative expression of CDKN1A (p21)” value (CDKN1A (p21))?
A: upregulated upon GE compared to negative controls independently from Anakinra treatment

Q: And the “Culture composition of HSPC subpopulations” value (human CD34+ HSPCs [3]; CB HSPCs, 24 h and 96 h post gene editing ± Anakinra)?
A: No treatment skewed culture composition over time

Q: And the Culture composition skewing (human CD34+ HSPCs [3]; HSPCs edited with COMBO, 24 h and 96 h)?
A: without overt apoptosis (FIG. 17I) and culture composition skewing

Q: And the “HSPC culture composition and differentiation” value (human CD34+ HSPCs [3]; mPB-derived HSPCs ± Anakinra)?
A: did not alter HSPC culture composition and differentiation

Q: What about the “Number of colonies (HSPC clonogenic potential)” value (human CD34+ HSPCs [4]; CB HSPCs, HS/AAV6, inhibitor at time of GE vs standard protocol, 24 h and 96 h post GE) of the same substance?
A: significant increase in HSPC clonogenic potential; also recorded: strongly improved HSPC clonogenic potential in vitro; also recorded: strongly improved HSPC clonogenic potential ex-vivo

Q: What about the “Clonogenic potential (number of colonies)” value (human CD34+ HSPCs [4]; HSPCs edited with COMBO, 24 and 96 h) of the same substance?
A: increase in the clonogenic potential of the cells

Q: And the “Clonogenic potential of edited cells” value (human CD34+ HSPCs [4]; mPB-derived HSPCs, 24 and 96 h post GE)?
A: significantly improved the clonogenic potential of edited cells
